Source: patent US20050209278A1, “Piperidinyl- and piperazinyl-sulfonylmethyl hydroxamic acids and their use as protease inhibitors” (priority 2002, published 2005)

How the values were obtained:
[1] = target: T1, MMP-2 (Homo sapiens, UniProt P08253); assay: In vitro MMP inhibition, Ki determination (fluorogenic substrate II); type: biochemical; conditions: value not in parenthesis; read-out: MMP-2 Ki
T1 construct: made in house; host or cells: MMP-2-transfected p2AHT2 cells
T1 sequence (P08253 110-660): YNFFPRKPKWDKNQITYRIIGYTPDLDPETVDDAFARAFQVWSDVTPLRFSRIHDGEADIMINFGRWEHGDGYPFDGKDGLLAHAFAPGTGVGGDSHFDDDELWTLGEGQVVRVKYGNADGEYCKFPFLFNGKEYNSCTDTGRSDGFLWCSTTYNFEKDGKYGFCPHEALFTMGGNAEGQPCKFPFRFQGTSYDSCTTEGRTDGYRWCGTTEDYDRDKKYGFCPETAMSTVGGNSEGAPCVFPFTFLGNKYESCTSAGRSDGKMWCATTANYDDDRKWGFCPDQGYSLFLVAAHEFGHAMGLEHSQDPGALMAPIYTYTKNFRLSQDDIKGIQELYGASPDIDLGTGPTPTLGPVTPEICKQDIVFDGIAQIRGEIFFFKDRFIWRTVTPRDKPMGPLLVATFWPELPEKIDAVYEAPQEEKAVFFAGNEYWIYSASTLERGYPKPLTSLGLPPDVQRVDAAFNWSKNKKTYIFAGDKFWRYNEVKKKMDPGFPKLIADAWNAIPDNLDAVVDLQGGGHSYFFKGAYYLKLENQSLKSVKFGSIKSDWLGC

[2] = target: T2, MMP-9 (Homo sapiens, UniProt P14780); assay: as above; type: biochemical; conditions: value not in parenthesis
T2 construct: made in house; host or cells: MMP-9-transfected HT1080 cells (spent media)
Experimental: Several hydroxamic acids and salts thereof were analyzed in in vitro assays to determine their ability to inhibit the MMP cleavage of peptide substrates. […] and IC50 constants were calculated from the assayed hydroxamic acid-MMP interactions.
Human recombinant MMP-1, MMP-2, MMP-9, MMP-13, and MMP-14 were used in this assay. All enzymes were prepared in Assignee's laboratories following usual laboratory procedures. Protocols for the preparation and use of these enzymes are available in the scientific literature. See, e.g., Enzyme Nomenclature (Academic Press, San Diego, Calif., 1992) (and the citations therein). See also, Freije et al., “Molecular cloning and expression of collagenase-3, a novel human matrix metalloproteinase produced by breast carcinomas,” J Biol. Chem., 269(24), 16766-16773 (1994).
The MMP-9 proenzyme was purified by gelatin Sepharose chromatography from spent media of MMP-9-transfected HT1080 cells provided by Dr. Howard Welgus of Washington University (St. Louis, Mo.).
All MMPs were activated using 4-aminophenylmercuric acetate (“APMA”, Sigma Chemical, St. Louis, Mo.) or trypsin. MMP-9 also was activated using human recombinant MMP-3 (purified in Assignee's laboratory following standard cloning and purification techniques).
Two fluorogenic, methoxycoumarin-containing polypeptide substrates were used in the MMP inhibition assays: [drawing 427] Here, “Dpa” is 3-(2,4-dinitrophenyl)-L-2,3-diaminopropionyl group, and “MCA” is 7-methoxycoumarin-4-yl acetyl. Substrate (I) was purchased from Baychem (Redwood City, Calif.), and substrate II was prepared Assignee's laboratory. Substrate I was used in the IC50 determination assays, while substrate II was used in the Ki determination assays. In the absence of MMP inhibitory activity, either substrate is cleaved at the Gly-Leu peptide bond. This cleavage separates the highly fluorogenic peptide from the 2,4-dinitrophenyl quencher, thus resulting in increase of fluorescent intensity.
The stock solutions of the assayed hydroxamic acids (or salts thereof) were prepared in 1% dimethyl sulfoxide (DMSO). These stock solutions were diluted in Buffer A (100 mM Tris-HCl, 100 mM NaCl, 10 mM CaCl2, 0.05% polyoxyethylene 23 lauryl ether, pH 7.5) to obtain solutions with different hydroxamic acid concentrations, i.e., assay solutions with different concentrations of the assayed MMP inhibitory compound. The experiment controls contained the same amount of Buffer A/DMSO as the assayed sample, but contained no hydroxamic acid (or salt thereof).
The assays from which the Ki determinations were made were performed as follows. The assayed hydroxamic acid samples were incubated in separate wells of untreated white polystyrene plates (Nunc Nalgene International, Rochester, N.Y.), and analyzed on a Tecan SpectraFlour Plus plate reader. The excitation wavelength was 330 nm, and the emission wavelength—420 nm. All samples (assayed hydroxamic acids and controls) were incubated in separate plate wells at room temperature for 1 hr in the presence of 4 μM of MMP substrate (II). In the absence of MMP inhibitory activity, substrate II was cleaved at the Gly-Leu bond resulting in an increase of relative fluorescence. Inhibition was observed as a reduced rate of this increase in relative fluorescence. The various hydroxamic acids were analyzed using a single low enzyme concentration with a single substrate concentration fixed at or below the Km. This protocol is a modification of method by Knight et al., FEBS Lett., 296(3), 263-266 (1992). Apparent inhibitory constants were determined by non-linear regression of reaction velocity as a function of inhibitor and enzyme concentration using Morrison's equation, as described by Kuzmic, Anal. Biochem. 286, 45-50 (2000). Modifications were made in the non-linear regression method to allow a common control reaction rate and effective enzyme concentration to be shared between all dose-response relationships on a given assay plate. […]

T2 sequence (P14780 107-707 limits assumed): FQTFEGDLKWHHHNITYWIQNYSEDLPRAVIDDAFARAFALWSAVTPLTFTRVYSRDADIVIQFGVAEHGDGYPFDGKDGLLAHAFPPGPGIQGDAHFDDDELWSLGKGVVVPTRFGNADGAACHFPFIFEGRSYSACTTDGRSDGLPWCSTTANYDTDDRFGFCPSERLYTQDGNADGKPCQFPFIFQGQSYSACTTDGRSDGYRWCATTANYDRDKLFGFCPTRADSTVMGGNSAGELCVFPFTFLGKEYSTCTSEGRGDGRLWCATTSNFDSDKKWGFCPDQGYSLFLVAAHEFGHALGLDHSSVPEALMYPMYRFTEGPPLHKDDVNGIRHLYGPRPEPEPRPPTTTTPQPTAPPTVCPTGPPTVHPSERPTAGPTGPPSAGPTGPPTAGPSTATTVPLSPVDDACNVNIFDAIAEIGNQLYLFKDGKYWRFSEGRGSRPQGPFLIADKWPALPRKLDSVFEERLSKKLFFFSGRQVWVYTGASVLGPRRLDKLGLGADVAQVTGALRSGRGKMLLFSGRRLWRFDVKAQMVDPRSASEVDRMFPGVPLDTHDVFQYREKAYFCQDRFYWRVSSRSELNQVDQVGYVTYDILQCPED

SMILES	Ki [1] [nM]	Ki [2] [nM]
CCCCOc1ccc(N2CCN(S(=O)(=O)C3(C(=O)NO)CCN(C(=O)OCC(F)(F)F)CC3)CC2)cc1 [Example 115]	1.48	4.97
CCCCOc1ccc(N2CCN(S(=O)(=O)C3(C(=O)NO)CCN(C(=O)NCCOC)CC3)CC2)cc1 [Example 118]	0.75	1.5
COCCN1CCC(C(=O)NO)(S(=O)(=O)N2CCN(c3ccc(OCC(F)(F)F)cc3)CC2)CC1 [Example 119]	1.19	1.35
CCCCOc1ccc(N2CCN(S(=O)(=O)C3(C(=O)NO)CCN(c4ccc(O)cc4)CC3)CC2)cc1 [Example 121]	2.15	3.6
CCCCOc1ccc(N2CCN(S(=O)(=O)C3(C(=O)NO)CCN4CCCC4C3)CC2)cc1F (centres unmarked) [Example 126]	8.24	19
CCCCOc1ccc(N2CCN(S(=O)(=O)C3(C(=O)NO)CCN(C(=O)c4cc5ccccc5o4)CC3)CC2)cc1 [Example 127]	6.02	24
CC(C)CCOc1ccc(N2CCN(S(=O)(=O)C3(C(=O)NO)CCN(C4CC4)CC3)CC2)cc1 [Example 128]	0.785	1.92
CCCCOc1ccc(N2CCN(S(=O)(=O)C3(C(=O)NO)CCN(c4ccc(OCCOC)nn4)CC3)CC2)cc1 [Example 129]	0.508	1.2
CCCCOc1ccc(N2CCN(S(=O)(=O)C3(C(=O)NO)CCN(c4ccc(C)nc4)CC3)CC2)cc1 [Example 131]	1.39	3.03
Cc1ccc(N2CCN(S(=O)(=O)C3(C(=O)NO)CCOCC3)CC2)nc1 [Example 138]	0.469	5.09
CCCCOc1ccc(N2CCN(S(=O)(=O)C3(C(=O)NO)CCN(c4cc(C)ccn4)CC3)CC2)cc1 [Example 139]	2.18	7.45
CCCCOc1ccc(N2CCN(S(=O)(=O)C3(C(=O)NO)CCN(c4cnccn4)CC3)CC2)cc1 [Example 140]	0.672	1.76
CCCCOc1ccc(N2CCN(S(=O)(=O)C3(C(=O)NO)CCOCC3)CC2)cc1 [Example 145]	0.695	1.18
CCCCc1ccc(N2CCN(S(=O)(=O)C3(C(=O)NO)CCN(c4ccc(C)cc4)CC3)CC2)cc1 [Example 146]	6.41	2.29
CCCCCc1ccc(N2CCN(S(=O)(=O)C3(C(=O)NO)CCN(c4ccc(C)cc4)CC3)CC2)cc1 [Example 147]	20.5	13.7
O=C(NO)C1(S(=O)(=O)N2CCN(c3ccc(SC(F)(F)F)cc3)CC2)CCN(Cc2ccccc2)CC1 [Example 152]	0.871	90
CCCCOc1ccc(N2CCN(S(=O)(=O)C3(C(=O)NO)CCN(c4cccnc4)CC3)CC2)cc1 [Example 154]	1.07	2.15

The remaining compounds from weak to strong by Ki [1], led by results:

Ki [1] [nM]	Ki [2] [nM]	SMILES
8.97	29	CCCCOc1ccc(N2CCN(S(=O)(=O)C3(C(=O)NO)CCN(C(=O)c4cc5ccccc5s4)CC3)CC2)cc1 [Example 143]
5.23	23.2	CCCCOc1ccc(N2CCN(S(=O)(=O)C3(C(=O)NO)CCN(c4nccc(C(F)(F)F)n4)CC3)CC2)cc1 [Example 130]
4.31	49.5	CC(C)(C)N1CCC(C(=O)NO)(S(=O)(=O)N2CCN(c3ccc(OCCCC(F)(F)F)cc3F)CC2)CC1 [Example 116]
4.25	31.4	CCCCOc1ccc(N2CCN(S(=O)(=O)C3(C(=O)NO)CCN(c4nc5ccccc5o4)CC3)CC2)cc1 [Example 150]
2.58	27.7	O=C(NO)C1(S(=O)(=O)N2CCN(c3ccc(OCCCC(F)(F)F)cc3F)CC2)CCOCC1 [Example 117]
1.89	5.87	CCCCOc1ccc(N2CCN(S(=O)(=O)C3(C(=O)NO)CCN(c4ccccn4)CC3)CC2)cc1 [Example 149]
1.83	9.86	CCCCOc1ccc(N2CCN(S(=O)(=O)C3(C(=O)NO)CCN(c4ncc(CC)cn4)CC3)CC2)cc1 [Example 155]
1.8	7.2	CCCCOc1ccc(N2CCN(S(=O)(=O)C3(C(=O)NO)CCN(c4ccc(C)cn4)CC3)CC2)cc1 [Example 125]
1.28	2.72	CCCCOc1ccc(N2CCN(S(=O)(=O)C3(C(=O)NO)CCN(C(=S)N(C)C)CC3)CC2)cc1 [Example 123]
1.2	28.3	O=C1c2ccccc2C(=O)N1CCCCc1ccc(N2CCN(S(=O)(=O)C3(C(=O)NO)CCOCC3)CC2)nc1 [Example 132]
1.19	2.35	COCCN1CCC(C(=O)NO)(S(=O)(=O)N2CCN(c3ccc(OCCC(C)C)cc3)CC2)CC1 [Example 148]
0.978	2.15	CCCCOc1ccc(N2CCN(S(=O)(=O)C3(C(=O)NO)CCN(c4ccc(OC)nc4)CC3)CC2)cc1 [Example 142]
0.69	2.31	COCCN1CCC(C(=O)NO)(S(=O)(=O)N2CCN(c3ccc(OCC(F)(F)C(F)(F)F)cc3)CC2)CC1 [Example 144]
0.502	6.1	O=C(NO)C1(S(=O)(=O)N2CCN(c3ccc(OCCCC(F)(F)F)cc3)CC2)CCN(C2CC2)CC1 [Example 153]
0.367	2.64	CCc1ccc(N2CCN(S(=O)(=O)C3(C(=O)NO)CCOCC3)CC2)nc1 [Example 114]
0.34	0.01	O=C(c1cccnc1)N1CCC(C(=O)NO)(S(=O)(=O)N2CCN(c3ccc(OCCCC(F)(F)F)cc3)CC2)CC1 [Example 122]
0.266	5.33	CCCCOc1ccc(N2CCN(S(=O)(=O)C3(C(=O)NO)CCN(C(=O)OCCOC)CC3)CC2)cc1 [Example 141]
0.251	0.52	CC(C)CCc1ccc(N2CCN(S(=O)(=O)C3(C(=O)NO)CCOCC3)CC2)nc1 [Example 133]
0.193	0.429	CCCCOc1ccc(N2CCN(S(=O)(=O)C3(C(=O)NO)CCN(C(=O)N4CCOCC4)CC3)CC2)cc1 [Example 124]
0.142	0.196	CCCc1ccc(N2CCN(S(=O)(=O)C3(C(=O)NO)CCOCC3)CC2)nc1 [Example 136]
